#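 In this assay, cells in 96-well plates receive the compound at five concentrations for 48 hours. Endpoints are linearly interpolated between the surrounding concentrations. TGI denotes the concentration required for complete inhibition of growth.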
# Key:
# Experiment in all cases: NCI-60 cell line screen, 48 h
# EKVX NSCLC = tested on: EKVX NSCLC
# A549 NSCLC = tested on: A549 NSCLC
# SNB-19 CNS = tested on: SNB-19 CNS
# UO-31 renal = tested on: UO-31 renal
# CAKI-1 renal = tested on: CAKI-1 renal
# KM12 colon = tested on: KM12 colon
# COLO 205 colon = tested on: COLO 205 colon
# OVCAR-5 ovarian = tested on: OVCAR-5 ovarian
# ACHN renal = tested on: ACHN renal
# UACC-257 melanoma = tested on: UACC-257 melanoma
# MDA-MB-231 breast = tested on: MDA-MB-231 breast
# DU-145 prostate = tested on: DU-145 prostate
# SF-539 CNS = tested on: SF-539 CNS
# NCI/ADR-RES ovarian = tested on: NCI/ADR-RES ovarian
# NCI-H23 lung = tested on: NCI-H23 lung
# OVCAR-3 ovarian = tested on: OVCAR-3 ovarian
# OVCAR-8 ovarian = tested on: OVCAR-8 ovarian
# PC-3 prostate = tested on: PC-3 prostate
# HOP-92 NSCLC = tested on: HOP-92 NSCLC
# HCT-116 colon = tested on: HCT-116 colon
# MDA-N = tested on: MDA-N
# M14 melanoma = tested on: M14 melanoma
# IGROV1 ovarian = tested on: IGROV1 ovarian
# SK-OV-3 ovarian = tested on: SK-OV-3 ovarian
# LOX IMVI melanoma = tested on: LOX IMVI melanoma
# SF-295 CNS = tested on: SF-295 CNS
# HOP-62 NSCLC = tested on: HOP-62 NSCLC
# HT29 colon = tested on: HT29 colon
# SN12C renal = tested on: SN12C renal
# SK-MEL-5 melanoma = tested on: SK-MEL-5 melanoma
# MOLT-4 leukemia = tested on: MOLT-4 leukemia
# HL-60(TB) leukemia = tested on: HL-60(TB) leukemia
# MCF7 breast = tested on: MCF7 breast
# 786-0 renal = tested on: 786-0 renal
# NCI-H226 lung = tested on: NCI-H226 lung
# BT-549 breast = tested on: BT-549 breast
# TK-10 renal = tested on: TK-10 renal
# T-47D breast = tested on: T-47D breast
# SNB-75 CNS = tested on: SNB-75 CNS
# SK-MEL-2 melanoma = tested on: SK-MEL-2 melanoma
# UACC-62 melanoma = tested on: UACC-62 melanoma
# SF-268 CNS = tested on: SF-268 CNS
# K-562 leukemia = tested on: K-562 leukemia
# SW-620 colon = tested on: SW-620 colon
# A498 renal = tested on: A498 renal
# MALME-3M melanoma = tested on: MALME-3M melanoma
# SK-MEL-28 melanoma = tested on: SK-MEL-28 melanoma
# RPMI-8226 leukemia = tested on: RPMI-8226 leukemia
# OVCAR-4 ovarian = tested on: OVCAR-4 ovarian
# RXF 393 renal = tested on: RXF 393 renal
# HCC-2998 colon = tested on: HCC-2998 colon
# CCRF-CEM leukemia = tested on: CCRF-CEM leukemia
# NCI-H522 lung = tested on: NCI-H522 lung
# NCI-H460 lung = tested on: NCI-H460 lung
# HCT-15 colon = tested on: HCT-15 colon
# SR leukemia = tested on: SR leukemia
# MDA-MB-435 = tested on: MDA-MB-435
# U251 CNS = tested on: U251 CNS
# HS 578T breast = tested on: HS 578T breast
smiles,measurement,setting,value
CC(=O)C1C(=O)C(=O)N(c2cccc(C)c2C)C1=O (centres undefined),TGI,EKVX NSCLC,> 100 µM
same,TGI,A549 NSCLC,> 100 µM
same,TGI,SNB-19 CNS,> 100 µM
same,TGI,UO-31 renal,> 100 µM
same,TGI,CAKI-1 renal,> 100 µM
same,TGI,KM12 colon,> 100 µM
same,TGI,COLO 205 colon,> 100 µM
same,TGI,OVCAR-5 ovarian,> 100 µM
same,TGI,ACHN renal,> 100 µM
same,TGI,UACC-257 melanoma,> 100 µM
same,TGI,MDA-MB-231 breast,> 100 µM
same,TGI,DU-145 prostate,> 100 µM
same,TGI,SF-539 CNS,> 100 µM
same,TGI,NCI/ADR-RES ovarian,> 100 µM
same,TGI,NCI-H23 lung,> 100 µM
same,TGI,OVCAR-3 ovarian,> 100 µM
same,TGI,OVCAR-8 ovarian,> 100 µM
same,TGI,PC-3 prostate,> 100 µM
same,TGI,HOP-92 NSCLC,> 100 µM
same,TGI,HCT-116 colon,> 100 µM
same,TGI,MDA-N,> 100 µM
same,TGI,M14 melanoma,> 100 µM
same,TGI,IGROV1 ovarian,> 100 µM
same,TGI,SK-OV-3 ovarian,> 100 µM
same,TGI,LOX IMVI melanoma,> 100 µM
same,TGI,SF-295 CNS,> 100 µM
same,TGI,HOP-62 NSCLC,> 100 µM
same,TGI,HT29 colon,> 100 µM
same,TGI,SN12C renal,> 100 µM
same,TGI,SK-MEL-5 melanoma,> 100 µM
same,TGI,MOLT-4 leukemia,> 100 µM
same,TGI,HL-60(TB) leukemia,> 100 µM
same,TGI,MCF7 breast,> 100 µM
same,TGI,786-0 renal,> 100 µM
same,TGI,NCI-H226 lung,> 100 µM
same,TGI,BT-549 breast,> 100 µM
same,TGI,TK-10 renal,> 100 µM
same,TGI,T-47D breast,> 100 µM
same,TGI,SNB-75 CNS,> 100 µM
same,TGI,SK-MEL-2 melanoma,> 100 µM
same,TGI,UACC-62 melanoma,> 100 µM
COC(=O)/C=C/c1ccc2c(c1)CCC2,TGI,EKVX NSCLC,> 100 µM
same,TGI,SF-268 CNS,> 100 µM
same,TGI,A549 NSCLC,> 100 µM
same,TGI,SNB-19 CNS,> 100 µM
same,TGI,K-562 leukemia,> 100 µM
same,TGI,SW-620 colon,> 100 µM
same,TGI,UO-31 renal,> 100 µM
same,TGI,A498 renal,> 100 µM
same,TGI,CAKI-1 renal,> 100 µM
same,TGI,OVCAR-5 ovarian,> 100 µM
same,TGI,ACHN renal,> 100 µM
same,TGI,UACC-257 melanoma,> 100 µM
same,TGI,MDA-MB-231 breast,> 100 µM
same,TGI,DU-145 prostate,> 100 µM
same,TGI,MALME-3M melanoma,> 100 µM
same,TGI,SF-539 CNS,> 100 µM
same,TGI,NCI/ADR-RES ovarian,> 100 µM
same,TGI,SK-MEL-28 melanoma,> 100 µM
same,TGI,NCI-H23 lung,> 100 µM
same,TGI,RPMI-8226 leukemia,> 100 µM
same,TGI,OVCAR-4 ovarian,> 100 µM
same,TGI,RXF 393 renal,> 100 µM
same,TGI,HCC-2998 colon,> 100 µM
same,TGI,CCRF-CEM leukemia,> 100 µM
same,TGI,OVCAR-3 ovarian,> 100 µM
same,TGI,OVCAR-8 ovarian,> 100 µM
same,TGI,PC-3 prostate,> 100 µM
same,TGI,NCI-H522 lung,> 100 µM
same,TGI,HOP-92 NSCLC,46.7 µM
same,TGI,HCT-116 colon,98 µM
same,TGI,MDA-N,> 100 µM
same,TGI,M14 melanoma,> 100 µM
same,TGI,IGROV1 ovarian,> 100 µM
same,TGI,SK-OV-3 ovarian,> 100 µM
same,TGI,LOX IMVI melanoma,> 100 µM
same,TGI,SF-295 CNS,> 100 µM
same,TGI,HOP-62 NSCLC,> 100 µM
same,TGI,HT29 colon,> 100 µM
same,TGI,NCI-H460 lung,> 100 µM
same,TGI,SK-MEL-5 melanoma,> 100 µM
same,TGI,MOLT-4 leukemia,> 100 µM
same,TGI,HL-60(TB) leukemia,73.6 µM
same,TGI,MCF7 breast,> 100 µM
same,TGI,786-0 renal,> 100 µM
same,TGI,TK-10 renal,> 100 µM
same,TGI,HCT-15 colon,> 100 µM
same,TGI,T-47D breast,> 100 µM
same,TGI,SR leukemia,72.9 µM
same,TGI,SNB-75 CNS,91.4 µM
same,TGI,MDA-MB-435,> 100 µM
same,TGI,SK-MEL-2 melanoma,> 100 µM
same,TGI,U251 CNS,> 100 µM
same,TGI,HS 578T breast,> 100 µM

# Source: PubChem BioAssay (NCI)
